Assays:
Adenosine A2 receptor [1] = molecular target: T1, Adenosine A2 receptor (UniProt P29275+P29274); experiment: Acidic dissociation constant(pKa) against A2 adenosine receptor of coronary artery; format: protein assay; settings: Canis lupus familiaris
[2] = Index of hydrophobicity (k'); format: ADME
Adenosine A2 receptor [3] = molecular target: T1, Adenosine A2 receptor; experiment: Association constant against A2 adenosine receptor; format: protein assay; settings: Canis lupus familiaris
Adenosine A2 receptor [4] = molecular target: T1, Adenosine A2 receptor; settings: Canis lupus familiaris
Description: Molar potency ratio (MPR) against adenosine A2 receptor of canine coronary artery

Adenosine A2 receptor [5] = molecular target: T1, Adenosine A2 receptor; settings: Canis lupus familiaris; remark: listed apart in the source
Adenosine A2 receptor [6] = molecular target: T1, Adenosine A2 receptor; experiment: Molar potency ratio (MPR) against A2 adenosine receptor of coronary artery; format: functional; settings: Canis lupus familiaris
Adenosine A2 receptor [7] = molecular target: T1, Adenosine A2 receptor; experiment: Maximum increase in coronary flow, percent of control, and nucleoside concentration in coronary plasma at 12 uM; format: functional; settings: Canis lupus familiaris
Adenosine A2 receptor [8] = molecular target: T1, Adenosine A2 receptor; experiment: Maximum increase in coronary flow, percent of control, and nucleoside concentration in coronary plasma at 17 uM; format: functional; settings: Canis lupus familiaris
Adenosine A2 receptor [9] = molecular target: T1, Adenosine A2 receptor; experiment: Maximum increase in coronary flow, percent of control, and nucleoside concentration in coronary plasma at 28 uM; format: functional; settings: Canis lupus familiaris
[10] = Estimated ionization constant(pKa); format: physicochemical

T1 sequence (P29274 whole entry, looked up): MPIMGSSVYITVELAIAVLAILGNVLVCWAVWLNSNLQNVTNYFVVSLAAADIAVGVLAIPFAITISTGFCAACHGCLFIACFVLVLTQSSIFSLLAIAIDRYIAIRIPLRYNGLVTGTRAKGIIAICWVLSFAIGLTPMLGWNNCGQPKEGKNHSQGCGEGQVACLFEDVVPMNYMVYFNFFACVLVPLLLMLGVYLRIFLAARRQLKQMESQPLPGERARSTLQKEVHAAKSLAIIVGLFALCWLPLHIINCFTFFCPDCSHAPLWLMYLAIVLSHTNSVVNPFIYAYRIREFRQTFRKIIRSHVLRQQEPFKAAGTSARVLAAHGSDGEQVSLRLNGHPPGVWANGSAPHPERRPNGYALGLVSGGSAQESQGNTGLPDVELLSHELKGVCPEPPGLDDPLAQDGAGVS
T1 sequence (P29275 whole entry, looked up): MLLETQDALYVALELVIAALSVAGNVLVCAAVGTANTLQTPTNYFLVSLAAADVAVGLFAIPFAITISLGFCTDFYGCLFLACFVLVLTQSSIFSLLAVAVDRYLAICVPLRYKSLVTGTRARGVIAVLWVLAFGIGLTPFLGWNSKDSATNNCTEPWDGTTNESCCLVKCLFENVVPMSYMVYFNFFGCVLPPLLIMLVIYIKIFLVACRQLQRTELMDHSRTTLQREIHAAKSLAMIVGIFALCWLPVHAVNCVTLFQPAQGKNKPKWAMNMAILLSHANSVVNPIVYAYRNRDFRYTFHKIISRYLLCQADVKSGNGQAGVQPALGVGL

Structure (SMILES) | pka (Adenosine A2 receptor [1]) | k' [2] | MPR (Adenosine A2 receptor [4]) | further results
OC[C@H]1OC(n2cnc3c(NCCc4ccc(F)cc4)ncnc32)[C@H](O)[C@@H]1O (stereo partly specified) | 3.32 | 2.39 | 2.1 | K (Adenosine A2 receptor [3]): 10300 M⁻¹
OC[C@H]1OC(n2cnc3c(NCCc4ccc(Cl)cc4)ncnc32)[C@H](O)[C@@H]1O (stereo partly specified) | 3.23 | 4.07 | 0.41 | –
Cc1ccccc1CNc1ncnc2c1ncn2[C@@H]1O[C@H](CO)[C@@H](O)[C@H]1O | 3.22 | 2.76 | 1.8 | –
OC[C@H]1OC(n2cnc3c(Nc4ccccc4Cl)ncnc32)[C@H](O)[C@@H]1O (stereo partly specified) | 2.76 | 2.36 | 0.42 | –
OC[C@H]1O[C@@H](n2cnc3c(NCc4ccccc4Cl)ncnc32)[C@H](O)[C@@H]1O | 3.06 | 3.12 | 1.2 | –
Cc1cccc(Nc2ncnc3c2ncn3C2O[C@H](CO)[C@@H](O)[C@H]2O)c1 (stereo partly specified) | 2.79 | 3.28 | 0.023 | –
Cc1ccc(CNc2ncnc3c2ncn3[C@@H]2O[C@H](CO)[C@@H](O)[C@H]2O)cc1 | 3.19 | 3.04 | 0.04 | –
Cc1ccccc1Nc1ncnc2c1ncn2C1O[C@H](CO)[C@@H](O)[C@H]1O (stereo partly specified) | 2.98 | 1.4 | 0.65 | –
C[C@H](Cc1ccccc1)Nc1ncnc2c1ncn2[C@@H]1O[C@H](CO)[C@@H](O)[C@H]1O (stereo in doubt; 1) | – | – | – | MPR (Adenosine A2 receptor [5]): 4.3
OC[C@H]1O[C@@H](n2cnc3c(Nc4ccccc4)ncnc32)[C@H](O)[C@@H]1O [N6-PHENYLADENOSINE] | 2.73 | 1.29 | 1.4 | K (Adenosine A2 receptor [3]): 3160 M⁻¹
OC[C@H]1OC(n2cnc3c(NCCc4ccccn4)ncnc32)[C@H](O)[C@@H]1O (stereo partly specified) | < 1 | 0.39 | 1 | –
COc1ccccc1CNc1ncnc2c1ncn2[C@@H]1O[C@H](CO)[C@@H](O)[C@H]1O | 3.3 | 2.31 | – | MPR (Adenosine A2 receptor [6]): 0.7
Cc1cc(C)cc(Nc2ncnc3c2ncn3C2O[C@H](CO)[C@@H](O)[C@H]2O)c1 (stereo partly specified) | – | 6.43 | – | Activity (Adenosine A2 receptor [7]): 4%
COc1ccccc1Nc1ncnc2c1ncn2C1O[C@H](CO)[C@@H](O)[C@H]1O (stereo partly specified) | 2.97 | 1.93 | 0.28 | –
OC[C@H]1O[C@@H](n2cnc3c(NCc4ccccc4)ncnc32)[C@H](O)[C@@H]1O [N6-BENZYLADENOSINE] | 3.07 | 1.21 | 0.52 | –
COc1ccc(CCNc2ncnc3c2ncn3C2O[C@H](CO)[C@@H](O)[C@H]2O)cc1 (stereo partly specified) | 3.49 | 1.93 | 0.29 | –
COc1ccc(Nc2ncnc3c2ncn3[C@@H]2O[C@H](CO)[C@@H](O)[C@H]2O)cc1 | 2.95 | 1.36 | 3.5 | –
OC[C@H]1O[C@@H](n2cnc3c(NCCc4ccccc4)ncnc32)[C@H](O)[C@@H]1O | 3.57 | 1.77 | 2 | –
Cc1ccc(Nc2ncnc3c2ncn3C2O[C@H](CO)[C@@H](O)[C@H]2O)cc1 (stereo partly specified) | 2.79 | 3.28 | 1.3 | –
OC[C@H]1OC(n2cnc3c(Nc4ccc(Cl)cc4)ncnc32)[C@H](O)[C@@H]1O (stereo partly specified) | 2.46 | 4.96 | 0.94 | –
Cc1cccc(C)c1Nc1ncnc2c1ncn2C1O[C@H](CO)[C@@H](O)[C@H]1O (stereo partly specified) | – | 1.52 | – | Activity (Adenosine A2 receptor [8]): 22%
COc1ccc(CNc2ncnc3c2ncn3[C@@H]2O[C@H](CO)[C@@H](O)[C@H]2O)cc1 | 3.06 | 1.66 | – | MPR (Adenosine A2 receptor [5]): 0.04
OC[C@H]1OC(n2cnc3c(Nc4ccc(F)cc4)ncnc32)[C@H](O)[C@@H]1O (stereo partly specified) | 2.65 | 1.68 | 1.5 | K (Adenosine A2 receptor [3]): 3560 M⁻¹

Structure (SMILES) | pka (Adenosine A2 receptor [1]) | k' [2] | MPR (Adenosine A2 receptor [4]) | further results
OC[C@H]1OC(n2cnc3c(NC4CCc5ccccc5C4)ncnc32)[C@H](O)[C@@H]1O (stereo partly specified) | – | 4.89 | – | MPR (Adenosine A2 receptor [5]): 0.14
COc1cccc(Nc2ncnc3c2ncn3C2O[C@H](CO)[C@@H](O)[C@H]2O)c1 (stereo partly specified) | 2.59 | 1.32 | 0.26 | –
OC[C@H]1OC(n2cnc3c(NCCc4ccncc4)ncnc32)[C@H](O)[C@@H]1O (stereo partly specified) | < 1 | 0.32 | 0.42 | –
OC[C@H]1O[C@@H](n2cnc3c(NCc4ccc(Cl)cc4)ncnc32)[C@H](O)[C@@H]1O | 3.61 | 3.44 | 0.005 | –
OC[C@H]1O[C@@H](n2cnc3c(NCc4ccc(F)cc4)ncnc32)[C@H](O)[C@@H]1O | 3.32 | 1.57 | 0.36 | –
OC[C@H]1OC(n2cnc3c(NCc4ccc(Cl)cc4Cl)ncnc32)[C@H](O)[C@@H]1O (stereo partly specified) | – | 8.86 | 0.05 | –
COc1cc(Nc2ncnc3c2ncn3C2O[C@H](CO)[C@@H](O)[C@H]2O)cc(OC)c1OC (stereo partly specified) | 2.8 | 1.54 | – | Activity (Adenosine A2 receptor [9]): 28%
COc1cccc(CCNc2ncnc3c2ncn3C2O[C@H](CO)[C@@H](O)[C@H]2O)c1 (stereo partly specified) | – | 2 | 1.3 | –
Cc1ccc(CCNc2ncnc3c2ncn3C2O[C@H](CO)[C@@H](O)[C@H]2O)cc1 (stereo partly specified) | 3.4 | 4.76 | 0.46 | –
Cc1ccccc1CCNc1ncnc2c1ncn2C1O[C@H](CO)[C@@H](O)[C@H]1O (stereo partly specified) | 3.32 | 4.52 | 0.67 | –
OC[C@H]1OC(n2cnc3c(Nc4cccc(F)c4)ncnc32)[C@H](O)[C@@H]1O (stereo partly specified) | 2.66 | 2.36 | 0.43 | K (Adenosine A2 receptor [3]): 6360 M⁻¹
OC[C@H]1OC(n2cnc3c(NCCc4cccnc4)ncnc32)[C@H](O)[C@@H]1O (stereo partly specified) | < 1 | 0.38 | 3 | –
OC[C@H]1OC(n2cnc3c(NCc4ccccc4F)ncnc32)[C@H](O)[C@@H]1O (stereo partly specified) | 3.08 | 1.57 | 0.57 | –
OC[C@H]1OC(n2cnc3c(NCCc4ccccc4Cl)ncnc32)[C@H](O)[C@@H]1O (stereo partly specified) | 3.27 | 3.64 | 0.67 | K (Adenosine A2 receptor [3]): 32400 M⁻¹
OC[C@H]1OC(n2cnc3c(Nc4cccc(Cl)c4)ncnc32)[C@H](O)[C@@H]1O (stereo partly specified) | 2.61 | 5.05 | 0.2 | –
OC[C@H]1OC(n2cnc3c(NCCc4ccccc4F)ncnc32)[C@H](O)[C@@H]1O (stereo partly specified) | 3.19 | 2.36 | 1.9 | –
OC[C@H]1O[C@@H](n2cnc3c(NCCCc4ccccc4)ncnc32)[C@H](O)[C@@H]1O | – | 2.75 | 0.33 | –
OC[C@H]1O[C@@H](n2cnc3c(NCC4CCc5ccccc54)ncnc32)[C@H](O)[C@@H]1O (stereo partly specified) | – | 3.81 | 0.24 | –
OC[C@H]1OC(n2cnc3c(Nc4ccccc4F)ncnc32)[C@H](O)[C@@H]1O (stereo partly specified) | 2.39 | 1.48 | 0.91 | –
OC[C@H]1OC(n2cnc3c(NCCc4c[nH]c5ccccc45)ncnc32)[C@H](O)[C@@H]1O (stereo partly specified) | – | 1.39 | 0.43 | –
OC[C@H]1OC(n2cnc3c(NCCc4ccsc4)ncnc32)[C@H](O)[C@@H]1O (stereo partly specified) | – | 1.32 | 2.5 | –
COc1ccccc1CCNc1ncnc2c1ncn2C1O[C@H](CO)[C@@H](O)[C@H]1O (stereo partly specified) | – | 2.57 | 1.2 | pKa [10]: 3.56
OC[C@H]1OC(n2cnc3c(NC4CCCC[C@@H]4c4ccccc4)ncnc32)[C@H](O)[C@@H]1O (stereo partly specified) | – | 2 | 0.19 | –

Reference: ChEMBL document CHEMBL1123294, “Dog coronary artery adenosine receptor: structure of the N6-aryl subregion” (J Med Chem, 1986)
